Measured values published in PubChem BioAssay AID1259418 (Broad Institute, 2018).
“And” between values parts separate entries of the source, which are not always exact repeats. Equal values may be shown once. Results filed as inconclusive are left out. The source made the active and inactive calls.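 The calls were made as follows: active = fitted half-maximal concentration of signal decrease at or below twice the sample's top tested concentration; inconclusive = flat curve between -70 and -30 percent, or poor fit; inactive = flat within 30 percent, signal rise, or potency above limit.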

target: T. gondii ME49Luc in IFN-y HeLa, luciferase, 72 h; assay: T. gondii growth inhibition with IFN-gamma, dose response, cell-based, ME49Luc, HeLa, luciferase, 72 h (AID 1259418)

Row | SMILES | AC50
1 | COc1ccccc1N(Cc1nc(-c2ccc(C)cc2)oc1C)S(=O)(=O)c1ccc(C)cc1 | 10.3 µM
2 | COc1ccc(C#Cc2ccc([C@H]3[C@H]4CN(C(=O)NC(C)C)CC(=O)N4[C@H]3CO)cc2)cc1 | 18.5 µM
3 | CCC(=O)N1CC[C@@H]2[C@H]1c1cc(-c3ccc(C#N)cc3)ccc1N(C)[C@H]2CO | > 42 µM (inactive)
4 | CC(C)Cc1ccc(S(=O)(=O)N2CCC3(CC2)NCCN=C3NC2CCCCC2)cc1 | 25.6 µM
5 | CC(C)CCN1Cc2c(C(=O)Nc3cccc(F)c3)ncn2-c2ccccc2S1(=O)=O | 13 µM
6 | COc1ccc(-c2nc(NCCN3CCOCC3)c3ccccc3n2)cc1 | 14.2 µM
7 | CCOc1ccccc1C(=O)N1CCC2(CC1)Nc1ccc(Cl)cc1-n1cccc12 | 24.3 µM
8 | CCOc1ccc(-c2nc(CN3CCN(C(=O)Nc4ccc(F)cc4)CC3)c(C)o2)cc1 | 12.8 µM
9 | COc1ccc(CNC2=NCCNC23CCN(S(=O)(=O)c2ccc(C)cc2C)CC3)cc1 | 18.6 µM
10 | O=C(Nc1ccc(F)cc1)N1C[C@@H]2N[C@H](C1)C2c1ccc(/C=C/c2ccccc2)cc1 (some centres not stated) | 10.3 µM and 2.14 µM
11 | COc1ccc(NC(=O)N2CCCCN3[C@H](C2)[C@@H](c2ccc(-c4ccccc4F)cc2)[C@@H]3CO)cc1 | 32.8 µM
12 | COc1ccccc1NC(=O)N1C[C@@H]2N[C@H](C1)C2c1ccc(/C=C/c2ccccc2)cc1 (some centres not stated) | 6.84 µM and 4.45 µM and 4.22 µM
13 | CC(C)(C)c1ccc(CSC2=Nc3ccccc3C3=NC(CC(=O)NCc4ccco4)C(=O)N23)cc1 (configuration not stated) | 27.4 µM
14 | Cc1cc(C)c(S(=O)(=O)N2CCC3(CC2)NCCN=C3NCc2ccccc2C)cc1C | 6.27 µM
15 | Cc1ccc(-c2nc(Cn3c(=O)c4c(C)cc(C)nc4n(-c4ccccc4)c3=O)c(C)o2)cc1 | 30.9 µM
16 | Cc1cccc(CNC2=NCCNC23CCN(S(=O)(=O)c2ccc4c(c2)CCCC4)CC3)c1 | 5.08 µM
17 | O=C(CCC1N=C2c3ccccc3N=C(SCc3ccc(F)cc3)N2C1=O)NCc1ccc(F)cc1 (configuration not stated) | > 39 µM (inactive)
18 | Cc1ccc(S(=O)(=O)Nc2ccc3c(c2)C(=O)N([C@@H](C)CO)C[C@H](C)[C@H](CN(C)Cc2ccc(C(F)(F)F)cc2)O3)cc1 | 18.2 µM
19 | CCc1nc(OCC(=O)Nc2cccc(Br)c2)c2ccccc2n1 | > 39 µM (inactive)
20 | N#Cc1cccc(-c2ccc3c(c2)[C@@H]2[C@@H](CCN2S(=O)(=O)c2ccc(F)cc2)[C@@H](CO)N3)c1 | 15.7 µM
21 | Cc1ccc2[nH]c(C(=O)NCc3cccnc3)c(NC(=O)c3ccc(F)cc3)c2c1 | 27.6 µM
22 | COc1ccc(S(=O)(=O)N2CCCCN3[C@H](C2)[C@@H](c2ccc(C#CCC(C)C)cc2)[C@@H]3CO)cc1 | 12.3 µM
23 | COc1ccc(-c2nc(N(Cc3ccco3)CC3CCCO3)c3ccccc3n2)cc1 (configuration not stated) | 31.8 µM

Row | SMILES | AC50
24 | COc1ccccc1NC(=O)N1CCCCN2[C@H](C1)[C@@H](c1ccc(-c3cccc(C#N)c3)cc1)[C@@H]2CO | 21.1 µM
25 | O=S(=O)(c1cccs1)N1CCCCN2[C@H](CO)[C@@H](c3ccc(/C=C/c4ccccc4)cc3)[C@@H]2C1 | 22 µM
26 | Cc1ccccc1-c1ccc(C2[C@@H]3CN(Cc4cncnc4)C[C@H]2N3)cc1 (some centres not stated) | 19 µM
27 | CN1C(=O)c2cc(NC(=O)c3cccc(F)c3)ccc2OC[C@H]2O[C@@H](CC(=O)NCC3CCCCC3)CC[C@H]21 | 18.6 µM and 10.5 µM and 24.5 µM
28 | CC(C)NC(=O)N1CC(=O)N2[C@H](C1)[C@@H](c1ccc(/C=C/c3ccccc3)cc1)[C@@H]2CO | 10.4 µM
29 | CC(C)Cc1ccc(S(=O)(=O)N2CCC3(CC2)NCCN=C3NCc2ccc(Cl)cc2)cc1 | 12.4 µM
30 | COc1cccc(S(=O)(=O)N2CCCCN3[C@H](CO)[C@H](c4ccc(C#CCC(C)C)cc4)[C@@H]3C2)c1 | 13.6 µM and 2.35 µM
31 | CCOc1ccc(CC(=O)N2CCC3(CC2)Nc2cc(F)ccc2-n2cccc23)cc1OCC | > 39 µM (inactive)
32 | CCCCC(=O)N1CCC2(CC1)Nc1ccc(Cl)cc1-n1cccc12 | > 39 µM (inactive)
33 | CC(C)CC#Cc1ccc([C@@H]2[C@@H](CO)N3CCCCN(C(=O)Nc4ccccc4)C[C@@H]23)cc1 | 22.5 µM and 15.4 µM
34 | CC(C)c1ccc(S(=O)(=O)N2CCC(C(=O)NCCc3csc(-c4ccccc4)n3)CC2)cc1 | 12.7 µM
35 | COc1ccc(-c2nc(N(C)Cc3ccco3)c3ccccc3n2)cc1 | 17 µM
36 | CCc1nc(OCC(=O)Nc2ccc(C)c(F)c2)c2ccccc2n1 | 26.6 µM
37 | COc1ccc(CNC2=NCCNC23CCN(S(=O)(=O)c2ccc(Cl)s2)CC3)cc1 | 3.91 µM
38 | COc1ccc(-c2nc(NC3CC3)c3ccccc3n2)cc1 | 14.9 µM
39 | CCOc1ccc(N(Cc2nc(-c3ccccc3)oc2C)S(=O)(=O)c2ccccc2)cc1 | 7.95 µM
40 | Cc1cccc(CN2CCC3(CC2)N=C(c2cccc(C)c2)C(=O)N3)c1 | > 20 µM (inactive)
41 | COc1ccc(CNC2=NCCNC23CCN(S(=O)(=O)c2cc(C)c(C)cc2C)CC3)cc1 | 12.6 µM
42 | C[C@@H]1CN([C@@H](C)CO)C(=O)Cc2cc(NS(=O)(=O)c3ccc(Cl)cc3)ccc2O[C@@H]1CN(C)C(=O)Nc1ccc(C(F)(F)F)cc1 | 27.9 µM and 13.5 µM
43 | CCCCCCCCCCCCCCCC[n+]1ccccc1 | 11.5 µM
44 | O=C(c1cnccn1)N1CC(=O)N2[C@H](CO)[C@H](c3ccc(/C=C/c4ccccc4)cc3)[C@@H]2C1 | 24.8 µM
45 | COc1cccc(-c2nc(Cn3c(=O)c4c(C)cc(C)nc4n(-c4ccccc4)c3=O)c(C)o2)c1OC | > 39 µM (inactive)
46 | COc1cccc(NC(=O)COc2nc(C)nc3ccccc23)c1 | 36.7 µM

Row | SMILES | AC50
47 | O=C(NCCCN1CCCC1)C1CCN(Cc2cc3ccccc3n2Cc2ccccc2Cl)CC1 | 25.8 µM
48 | COc1ccccc1C#Cc1ccc([C@@H]2[C@@H](CO)N3CCCCN(C(=O)C4CCC4)C[C@H]23)cc1 | 28.8 µM and 14.6 µM
49 | Cc1ccc(CCNc2nc(-c3ccc(Cl)cc3)nc3ccccc23)cc1 | 22.7 µM
50 | COc1cccc(NC(=O)N2CC(=O)N3[C@H](CO)[C@@H](c4ccc(C#CCC5CCCC5)cc4)[C@@H]3C2)c1 | 11.9 µM and 9.9 µM
51 | Cc1ccc(-c2coc(-c3ccc(NC(=O)Nc4ccc(Br)cc4)cc3)n2)cc1 | > 39 µM (inactive)
52 | Cc1cc(C(=O)Nc2ccc3c(c2)C(=O)N(C)[C@@H]2CC[C@@H](CC(=O)NCc4ccc(-c5ccccc5)cc4)O[C@@H]2CO3)no1 | 20.8 µM
53 | COc1ccc(-c2nc(NCCCN3CCN(c4ccccc4)CC3)c3ccccc3n2)cc1 | 29.8 µM
54 | Cc1nc(CCNC(=O)C2CCN(C(=O)c3cccc(Cl)c3)CC2)cs1 | 31.5 µM
55 | O=C1CCc2cc(S(=O)(=O)NC(c3ccccc3)c3ccccc3)cc3c2N1CCC3 | 12.8 µM
56 | O=C(CCn1cnc2cc(-c3noc(-c4cc5cc(Cl)ccc5[nH]4)n3)ccc21)N1CCCC1 | 23.7 µM
57 | CC(C)CNc1nc2c(cc1C(=O)NC(C)C)CCN(c1ccncn1)CC2 | 26.5 µM
58 | COc1ccc(NC(=O)N2CCCCN3[C@H](CO)[C@@H](c4ccc(-c5ccccc5F)cc4)[C@@H]3C2)cc1 | 29.6 µM
59 | CCCNC(=O)N1C[C@@H]2N[C@H](C1)C2c1ccc(-c2ccc(OC)cc2)cc1 (some centres not stated) | 17.9 µM and 23.9 µM
60 | CC(C)Cc1ccc(S(=O)(=O)N2CCC3(CC2)NCCN=C3NC2CCCC2)cc1 | 12.5 µM
61 | Cc1c(Cl)cccc1NC(=O)CN1CCC2(CC1)N=C(c1cccc(F)c1)C(=O)N2 | > 39 µM (inactive)
62 | O=C(CC1N=C2c3ccccc3N=C(SCc3ccccc3F)N2C1=O)NCCc1ccccc1 (configuration not stated) | > 39 µM (inactive)
63 | CC(=O)NCc1nnn2c1CN(c1ncccn1)CCC2 | 10.9 µM
64 | N#C[C@@H]1[C@@H](c2ccc(C#Cc3cccnc3)cc2)[C@@H](CO)N1C(=O)NC1CCCCC1 | 13.6 µM
65 | Cc1ccc(CSC2=Nc3ccccc3C3=NC(CCC(=O)NCCc4ccccc4)C(=O)N23)cc1 (configuration not stated) | 30.8 µM
66 | COc1cccc(-c2nc3c(s2)CN(S(=O)(=O)c2cc(C)ccc2C)CC3)c1 | 6.71 µM and 7.85 µM
67 | O=S(=O)(c1ccc2c(c1)CCCC2)N1CCC2(CC1)NCCN=C2NCc1ccccc1 | 12.9 µM
68 | CCc1ccc(N2CCC(C(=O)NCCc3c[nH]c4ccc(C)cc34)C2=O)cc1 (configuration not stated) | 22.9 µM
69 | Fc1cccnc1OC1COC2(CCN(Cc3ccsc3)CC2)C1 (configuration not stated) | 24.8 µM

Row | SMILES | AC50
70 | Cc1ccc(-c2nc(CN3CCN(C(=O)Nc4ccc(C)c(F)c4)CC3)c(C)o2)cc1 | 8.58 µM
71 | O=C(c1ccc(F)cc1)N1CC(=O)N2[C@@H](CO)[C@@H](c3ccc(C#CCC4CCCC4)cc3)[C@@H]2C1 | 23.5 µM
72 | O=S(=O)(c1ccccc1)N1CCCCN2[C@H](CO)[C@@H](c3ccc(C#CC4CCCC4)cc3)[C@@H]2C1 | 13.4 µM
73 | COc1ccc(N(Cc2nc(-c3ccc(C)cc3)oc2C)S(=O)(=O)c2ccccc2)cc1 | 15.2 µM
74 | NCCCCCCCCCCNS(=O)(=O)c1cccc2c(Cl)cccc12 | 21.2 µM
75 | CCC(=O)N1CCC2(CC1)Nc1ccc(Cl)cc1-n1cccc12 | 31 µM
76 | COc1ccccc1-c1nc(CN(c2ccc(C)cc2)S(=O)(=O)c2cccs2)c(C)o1 | 30.4 µM
77 | O=C(CCC1N=C2c3ccccc3N=C(SCc3ccccc3F)N2C1=O)NCc1ccccc1 (configuration not stated) | 29.4 µM
78 | Cn1ncnc1[C@H]1c2n[nH]c(=O)c3cc(F)cc(c23)N[C@@H]1c1ccc(F)cc1 | 38.6 µM
79 | Cc1nc(OCC(=O)Nc2cccc(F)c2)c2ccccc2n1 | 28.8 µM
80 | Cc1ccc(-c2cc(C(F)(F)F)nn2-c2ccc(S(N)(=O)=O)cc2)cc1 | 22.2 µM
81 | C(=C\c1ccc(C2[C@@H]3CN(Cc4ccc5c(c4)OCO5)C[C@H]2N3)cc1)/c1ccccc1 (some centres not stated) | 13.2 µM
82 | CCCNC(=O)N1[C@H](CO)[C@@H](c2ccc(-c3ccccc3F)cc2)[C@@H]1C#N | 19.9 µM
83 | COc1ccc(-c2nc(NC3CCN(Cc4ccccc4)CC3)c3ccccc3n2)cc1 | 26.3 µM
84 | Cc1ccc(N(Cc2nc(-c3cccc(Cl)c3)oc2C)S(=O)(=O)c2cccs2)cc1 | 5.3 µM and 7.96 µM
85 | COc1cccc(NC(=O)N2CCc3nc(-c4ccc(C)cc4)sc3C2)c1 | 26.8 µM
86 | CCCCNC(=O)CC1N=C2c3ccccc3N=C(SCc3ccc(C)cc3)N2C1=O (configuration not stated) | 10.4 µM
87 | COc1ccc(CNC(=O)CC2N=C3c4ccccc4N=C(SCc4ccc(C)cc4)N3C2=O)cc1 (configuration not stated) | 19.4 µM
88 | O=S(=O)(c1ccc2c(c1)CCCC2)N1CCC2(CC1)NCCN=C2NCc1cc(F)cc(F)c1 | 4.41 µM
89 | N#C[C@@H]1[C@H](c2ccc(-c3cccc(F)c3)cc2)[C@@H](CO)N1C(=O)NC1CCCC1 | 20.4 µM
90 | O=S(=O)(c1ccc2c(c1)CCCC2)N1CCC2(CC1)NCCN=C2NCc1ccccc1F | 16.4 µM
91 | O=C(NCCc1csc(-c2ccccc2)n1)C1CCN(S(=O)(=O)c2ccc(F)cc2)CC1 | 11.4 µM
92 | O=C(C[C@@H]1CC[C@@H]2[C@H](COC[C@@H](O)CN2Cc2ccc(Oc3ccccc3)cc2)O1)N1CCN(c2ccccc2)CC1 | 20.7 µM
